# Patent US9556183B2, “Substituted pyrazolylpyrazole derivative and use of same as herbicide” (KYOYU AGRI CO., LTD., priority 2013, dated 2017)
# How the values were obtained:
# Format in all cases: in vivo
# Scirpus juncoides = assay: Paddy herbicidal activity test; conditions: irrigated paddy pot, 30 days
# Description: (§1) Rice paddy soil was filled into a 1/10000 are pot followed by the addition of suitable amounts of water and chemical fertilizer, kneading, seeding with Echinochloa crus-galli, Monochoria vaginalis and Scirpus juncoides and maintaining in an irrigated state at a water depth of 3 cm. Wettable powder of Target Compound (I) shown in Table 1 prepared in compliance with the preparation examples were diluted with a suitable amount of water, rice plants in the 2.0 leaf stage were transplanted during 3.5 leaf stage of Echinochloa crus-galli, and treated by dropping in chemical in the prescribed amount per are using a pipette. After treating for 30 days in a glass greenhouse at an average atmospheric temperature of 30° C., the herbicidal efficacy thereof was investigated. Evaluation of herbicidal efficacy was carried out by comparing growth inhibition rate (%) with an untreated group, while evaluation of phytotoxicity was carried out by comparing growth inhibition rate (%) with the state of a complete eradication group, and were evaluated at 11 levels indicated below. [table]
# Monochoria vaginalis = assay: Paddy herbicidal activity test; conditions: irrigated paddy pot, 30 days
# Description: as §1
# Echinochloa crus-galli = assay: Paddy herbicidal activity test; conditions: irrigated paddy pot, treated at 3.5 leaf stage of Echinochloa crus-galli, 30 days
# Description: as §1
# Chenopodium album [1] = assay: Weed foliar treatment test; conditions: foliar spray, 3 weeks
# Description: (§2) Evaluation of herbicidal efficacy was carried out by comparing growth inhibition rate (%) with an untreated group, while evaluation of phytotoxicity was carried out by comparing growth inhibition rate (%) with the state of a complete eradication group, and were evaluated at 11 levels indicated below. [table] Soil was filled into a 1/6000 are pot followed by seeding with Digitaria ciliaris, Chenopodium album and Amaranthus retroflexus, covering with soil, and cultivating in a glass greenhouse at an average atmospheric temperature of 25° C. Wettable powder of Target Compound (I) shown in Table 1 prepared in compliance with the preparation examples were diluted with water to the prescribed amount of chemical and uniformly sprayed onto the weeds using 15 liters of sprayed water per are when Digitaria ciliaris had grown to the 1.0 to 2.0 leaf stage. After treating for 3 weeks in a glass greenhouse at an average atmospheric temperature of 25° C., the herbicidal efficacy thereof was investigated, Evaluation of herbicidal efficacy was carried out in the same manner as the above-mentioned Test Example 1.
# Amaranthus retroflexus [2] = assay: Weed foliar treatment test; conditions: foliar spray, 3 weeks
# Description: as §2
# Digitaria ciliaris [3] = assay: Weed foliar treatment test; conditions: foliar spray at 1.0 to 2.0 leaf stage of Digitaria ciliaris, 3 weeks
# Description: as §2
# Rice plants = assay: Paddy herbicidal activity test, phytotoxicity to transplanted rice; conditions: rice transplanted at 2.0 leaf stage, 30 days
# Description: as §1
# Chenopodium album [4] = assay: Farming soil treatment test; conditions: soil surface spray prior to weed growth, 30 days
# Description: (§3) Evaluation of herbicidal efficacy was carried out by comparing growth inhibition rate (%) with an untreated group, while evaluation of phytotoxicity was carried out by comparing growth inhibition rate (%) with the state of a complete eradication group, and were evaluated at 11 levels indicated below. [table] Field soil was filled into a 1/6000 are pot followed by seeding with Digitaria ciliaris, Chenopodium album and Amaranthus retroflexus and covering with soil. Wettable powder of compounds of formula (I) shown in Table 1 prepared in compliance with the preparation examples were diluted with water to the prescribed amount of chemical and uniformly sprayed onto each soil surface layer using 10 liters of sprayed water per are prior to weed growth following seeding. After treating for 30 days in a glass greenhouse at an average atmospheric temperature of 30° C., the herbicidal efficacy thereof was investigated. Evaluation of herbicidal efficacy was carried out in the same manner as the above-mentioned Test Example 1.
# Amaranthus retroflexus [5] = assay: Farming soil treatment test; conditions: soil surface spray prior to weed growth, 30 days
# Description: as §3
# Digitaria ciliaris [6] = assay: Farming soil treatment test; conditions: soil surface spray prior to weed growth, 30 days
# Description: as §3
SMILES,herbicidal efficacy (growth inhibition rate level) Scirpus juncoides (Scirpus juncoides; 1g a.i./10a),herbicidal efficacy (growth inhibition rate level) Scirpus juncoides (Scirpus juncoides; 5g a.i./10a),herbicidal efficacy (growth inhibition rate level) Monochoria vaginalis (Monochoria vaginalis; 1g a.i./10a),herbicidal efficacy (growth inhibition rate level) Monochoria vaginalis (Monochoria vaginalis; 5g a.i./10a),herbicidal efficacy (growth inhibition rate level) Echinochloa crus-galli (Echinochloa crus-galli; 1g a.i./10a),herbicidal efficacy (growth inhibition rate level) Echinochloa crus-galli (Echinochloa crus-galli; 5g a.i./10a),herbicidal efficacy (growth inhibition rate level) Chenopodium album (Chenopodium album [1]; 5g a.i./10a),herbicidal efficacy (growth inhibition rate level) Chenopodium album (Chenopodium album [1]; 10g a.i./10a),herbicidal efficacy (growth inhibition rate level) Amaranthus retroflexus (Amaranthus retroflexus [2]; 5g a.i./10a),herbicidal efficacy (growth inhibition rate level) Amaranthus retroflexus (Amaranthus retroflexus [2]; 10g a.i./10a),herbicidal efficacy (growth inhibition rate level) Digitaria ciliaris (Digitaria ciliaris [3]; 5g a.i./10a),herbicidal efficacy (growth inhibition rate level) Digitaria ciliaris (Digitaria ciliaris [3]; 10g a.i./10a),phytotoxicity (growth inhibition rate level) Rice plants (Rice plants; 1g a.i./10a),phytotoxicity (growth inhibition rate level) Rice plants (Rice plants; 5g a.i./10a),herbicidal efficacy (growth inhibition rate level) Chenopodium album (Chenopodium album [4]; 5g a.i./10a),herbicidal efficacy (growth inhibition rate level) Chenopodium album (Chenopodium album [4]; 10g a.i./10a),herbicidal efficacy (growth inhibition rate level) Amaranthus retroflexus (Amaranthus retroflexus [5]; 5g a.i./10a),herbicidal efficacy (growth inhibition rate level) Amaranthus retroflexus (Amaranthus retroflexus [5]; 10g a.i./10a),herbicidal efficacy (growth inhibition rate level) Digitaria ciliaris (Digitaria ciliaris [6]; 5g a.i./10a),herbicidal efficacy (growth inhibition rate level) Digitaria ciliaris (Digitaria ciliaris [6]; 10g a.i./10a)
"N#Cc1cnn(-c2nn3c(c2Cl)CCCC3)c1NCC1CO1 (stereo not shown) [Control agent 4.129, reference compound]",3 (3: 30% to less than 40%),4 (4: 40% to less than 50%),0 (0 (exponent): 0% to less than 10% (growth inhibition rate)),0 (0 (exponent): 0% to less than 10% (growth inhibition rate)),1 (1: 10% to less than 20%),3 (3: 30% to less than 40%),6 (6: 60% to less than 70%),7 (7: 70% to less than 80%),7 (7: 70% to less than 80%),7 (7: 70% to less than 80%),4 (4: 40% to less than 50%),5 (5: 50% to less than 60%),1 (1: 10% to less than 20%),2 (2: 20% to less than 30%),6 (6: 60% to less than 70%),6 (6: 60% to less than 70%),6 (6: 60% to less than 70%),7 (7: 70% to less than 80%),4 (4: 40% to less than 50%),5 (5: 50% to less than 60%)
N#Cc1cnn(-c2nn3c(c2Cl)CCCC3)c1N(CC1CC1(F)F)C(=O)C(F)(F)F (stereo not shown) [Compound 186],9 (9: 90% to less than 100%),10 (10: 100%),9 (9: 90% to less than 100%),9 (9: 90% to less than 100%),10 (10: 100%),10 (10: 100%),10 (10: 100%),10 (10: 100%),10 (10: 100%),10 (10: 100%),10 (10: 100%),10 (10: 100%),0 (0 (exponent): 0% to less than 10% (growth inhibition rate)),1 (1: 10% to less than 20%),10 (10: 100%),10 (10: 100%),10 (10: 100%),10 (10: 100%),10 (10: 100%),10 (10: 100%)
